Assay results taken from patent publication US20260337212A1, “IP4-4,6 SUBSTITUTED DERIVATIVE COMPOUNDS FOR USE IN THE TREATMENT, INHIBITION OF PROGRESSION, AND PREVENTION OF ECTOPIC CALCIFICATION” (SANIFIT THERAPEUTICS, S.A., priority 2022, published 2026).

What was measured:
[1] = In vitro inhibition of calcium phosphate crystallization in human plasma (spectrophotometric); format: biochemical; conditions: 0-100 μM, 1.5 mM phosphate, 12.5 mM calcium, pH 7.4, 30 min, rt, read-out: Relative Potency (EC50, inhibition of calcium phosphate crystallization)
Experimental: The in vitro efficacy of the IP4-4,6 substituted derivatives (e.g., Compounds 1 to 53) of the invention on the inhibition of calcium phosphate crystallization in human plasma samples was evaluated according to a spectrophotometric assay previously described in the art (Ferrer M, et al., Sci Rep 2017; 7:6858, doi:10.1038/s41598-017-07203-x).
A 96-well plate was employed. Plasma was spiked (1 volume of the IP4-4,6 substituted derivatives of the invention per 19 volumes of plasma) with increasing concentrations of the derivatives in the range of 0-100 μM. Plasma was then centrifuged at 10,000 g at rt and subsequently mixed with a mixture of 5 mM hydrogen phosphate and 41.67 mM calcium to attain final concentrations of 1.5 mM phosphate and 12.5 mM calcium, respectively. All reagent solutions were filtered, and pH adjusted to 7.4.
Crystallization of calcium phosphate was monitored spectrophotometrically for 30 min at rt by measuring the increments in absorbance at 550 nm using the Biotek Powerwave XS Microplate spectrophotometer (BioTek Instruments, Inc., Winooski, VT, US). The plate was incubated at rt in an orbital shaker and absorbance measured every 3 min.
Plasma crystallization was assessed based on slope measurement in the linear range between 6 and 24 min from plots of increase in absorbance versus logarithm of time. The efficacy of different myo-inositol phosphates derivatives in preventing in vitro formation of calcium phosphate crystals was assessed in human plasma samples using the slopes obtained between 6- and 24-min. Inhibition of crystallization was measured by comparing the slopes of the control sample (blank plasma) with those of samples containing the inhibitor as shown below: […]

[2] = system: interstitial cells from aortic human valves (VIC); experiment: Calcification of interstitial cells from calcified human aortic valves (Alizarin Red); format: cell-based; conditions: 1, 3, 10, 30, 100 μM; 3 weeks osteodifferentiation media; FIG. 15
Experimental: Calcification was measured by Alizarin Red staining and quantified spectrophotometrically as relative calcification. Values are shown as dot plots with mean. A one-way ANOVA for parametric distributions (IP6) with DMS post-test statistical analysis was performed. For not normally distributed results (Compound 1, Compound 3, and Compound 6), a nonparametric one-way ANOVA (Kruskal-Wallis test) with Dunn's post-test was applied, p<0.05 was considered statistically significant.
The dose-response efficacy of IP4-4,6 derivatives in the treatment of calcified aortic human valves was analyzed using an in vitro model (Zabirnyk A, et al., Vasc Pharmacol 2019; 122-123, 106583, doi:10.1016/j.vph.2019.106583). The model evaluated the effects of IP6, Compound 1, Compound 3, and Compound 6 on the calcification of interstitial cells from aortic human valves (VIC).
Human calcified aortic valve leaflets were obtained during aortic valve replacement and were harvested. After the removal of the valve endothelial cells, VIC were isolated. The leaflets were placed in 30 mL of basic growth medium (DMEM), supplemented with 10% fetal bovine serum (FBS) and 50 μg/mL gentamycin with the addition of 1 mg/mL collagenase II. The cells were incubated overnight at 37° C. with 5% CO2. Next day, the digested tissue was homogenized by pipetting with a serological pipet and centrifuged at 300 g for 5 min and the supernatant carefully removed by aspiration.
The pellet was washed in 10 mL of fresh DMEM and centrifuged as described previously. The supernatant was removed by aspiration, the cell pellet was resuspended in basic growth media and seeded in […]. VIC were cultured at 37° C. and 5% CO2 with growth media changed twice a week until they reached ~90% confluency. Cells were passaged at ratio of 1:2, propagated and frozen. […]
Alizarin Red staining was performed to assess calcification. […] To quantify calcium accumulation, Alizarin Red staining was extracted and measured spectrophotometrically. […]

Row | Molecule | EC50 [1] | Inhibition of the calcification of VIC [2]
1 | 4,6-O-di(tetradecyl)-myo-inositol-1,2,3,5-tetrakis(phosphate) octasodium salt [Compound 3] | ≤ 5 µM | effective in inhibiting the calcification of VIC in vitro in a dose-response manner
2 | 4,6-O-dipentyl-myo-inositol-1,2,3,5-tetrakis(phosphate) octasodium salt [Compound 1] | ≤ 5 µM | effective in inhibiting the calcification of VIC in vitro in a dose-response manner
3 | O=P([O-])([O-])O[C@@H]1[C@@H](OCCCCCO)[C@H](OP(=O)([O-])[O-])[C@H](OP(=O)([O-])[O-])[C@H](OP(=O)([O-])[O-])[C@H]1OCCCCCO.[Na+].[Na+].[Na+].[Na+].[Na+].[Na+].[Na+].[Na+] [Compound 6, 4,6-O-bis(5-hydroxypentyl)-myo-inositol-1,2,3,5-tetrakis(phosphate) octasodium salt] | ≤ 5 µM | effective in inhibiting the calcification of VIC in vitro in a dose-response manner
